# Assay results taken from ChEMBL document CHEMBL1909046, “DrugMatrix in vitro pharmacology data”.
# Key:
# [1] = target: Vascular endothelial growth factor receptor 1 (Homo sapiens, UniProt P17948); assay type: cell-based; conditions: huvec; further: in other assays of this panel Not Active means under 50% inhibition at 10 µM
# Cannabinoid receptor 1 = Cannabinoid receptor 1 (Homo sapiens, UniProt P21554); assay type: cell membranes, Chem-1, Membrane; conditions: chem-1; further: in other assays of this panel Not Active means under 50% inhibition at 10 µM
# [2] = target: T1, Cysteinyl leukotriene receptor 1 (Homo sapiens, UniProt Q9Y271); assay type: cell membranes, CHO-K1, Membrane; conditions: cho-k1; further: in other assays of this panel Not Active means under 50% inhibition at 10 µM
# T1 sequence (Q9Y271 whole entry): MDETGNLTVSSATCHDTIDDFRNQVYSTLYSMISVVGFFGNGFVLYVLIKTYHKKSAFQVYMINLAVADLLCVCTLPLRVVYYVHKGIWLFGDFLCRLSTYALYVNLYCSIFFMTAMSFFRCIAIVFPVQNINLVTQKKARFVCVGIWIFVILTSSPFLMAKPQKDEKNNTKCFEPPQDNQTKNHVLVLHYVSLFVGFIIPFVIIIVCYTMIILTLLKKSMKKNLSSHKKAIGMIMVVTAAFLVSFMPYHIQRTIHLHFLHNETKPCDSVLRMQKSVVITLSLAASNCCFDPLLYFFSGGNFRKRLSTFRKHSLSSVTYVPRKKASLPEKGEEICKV
# Mu-type opioid receptor = Mu-type opioid receptor (Homo sapiens, UniProt P35372); assay: DRUGMATRIX: Opiate mu (OP3, MOP) radioligand binding (ligand: [3H] Diprenorphine); assay type: cell membranes, CHO-K1, Membrane; conditions: cho-k1; Not Active = under 50% inhibition at 10 µM
# [3] = DRUGMATRIX: Phosphodiesterase PDE3 enzyme inhibition (substrate: [3H]cAMP + cAMP); assay type: tissue-based, Homo sapiens; conditions: platelet, Not Active = under 50% inhibition at 10 µM
# Progesterone receptor = target: T2, Progesterone receptor (Bos taurus, UniProt Q690N0); assay: DRUGMATRIX: Progesterone radioligand binding (ligand: [3H] R-5020); assay type: tissue-based, Uterus; conditions: Not Active = under 50% inhibition at 10 µM
# T2 sequence (Q690N0 whole entry): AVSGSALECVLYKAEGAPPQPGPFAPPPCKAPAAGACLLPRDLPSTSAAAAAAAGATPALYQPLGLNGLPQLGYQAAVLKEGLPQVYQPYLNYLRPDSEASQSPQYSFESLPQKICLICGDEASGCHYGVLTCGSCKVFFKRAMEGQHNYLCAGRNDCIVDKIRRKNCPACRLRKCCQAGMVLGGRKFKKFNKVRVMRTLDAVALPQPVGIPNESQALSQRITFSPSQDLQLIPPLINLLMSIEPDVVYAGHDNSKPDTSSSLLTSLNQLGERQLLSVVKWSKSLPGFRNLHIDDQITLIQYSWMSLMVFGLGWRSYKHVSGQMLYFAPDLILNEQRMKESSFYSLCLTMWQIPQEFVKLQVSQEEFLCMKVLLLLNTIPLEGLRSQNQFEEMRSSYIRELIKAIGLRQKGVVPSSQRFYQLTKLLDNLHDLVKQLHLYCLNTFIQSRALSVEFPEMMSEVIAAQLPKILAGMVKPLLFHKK
# Cytochrome P450 2A6 = target: T3, Cytochrome P450 2A6 (Homo sapiens, UniProt P11509); conditions: bti-tn-5b1-4; further: in other assays of this panel Not Active means under 50% inhibition at 10 µM
# T3 sequence (P11509 whole entry): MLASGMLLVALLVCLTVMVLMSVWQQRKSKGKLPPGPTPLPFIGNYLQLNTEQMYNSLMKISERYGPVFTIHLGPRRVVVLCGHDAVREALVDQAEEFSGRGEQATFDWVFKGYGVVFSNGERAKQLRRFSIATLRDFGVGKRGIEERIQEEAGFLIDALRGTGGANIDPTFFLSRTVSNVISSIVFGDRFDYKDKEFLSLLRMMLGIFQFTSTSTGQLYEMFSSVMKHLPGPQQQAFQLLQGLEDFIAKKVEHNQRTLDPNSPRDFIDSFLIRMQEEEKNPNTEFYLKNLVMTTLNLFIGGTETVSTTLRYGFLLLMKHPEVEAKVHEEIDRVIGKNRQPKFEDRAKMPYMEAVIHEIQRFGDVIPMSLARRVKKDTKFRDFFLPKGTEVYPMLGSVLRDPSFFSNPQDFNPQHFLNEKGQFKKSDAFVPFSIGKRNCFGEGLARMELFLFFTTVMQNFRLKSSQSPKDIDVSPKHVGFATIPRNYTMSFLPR
# Cytochrome P450 2D6 = Cytochrome P450 2D6 (Homo sapiens, UniProt P10635); conditions: bti-tn-5b1-4; further: in other assays of this panel Not Active means under 50% inhibition at 10 µM
# Estrogen receptor beta = Estrogen receptor beta (Homo sapiens, UniProt Q92731); conditions: sf9; further: in other assays of this panel Not Active means under 50% inhibition at 10 µM
# [4] = target: Voltage-gated inwardly rectifying potassium channel KCNH2 (Homo sapiens, UniProt Q12809); conditions: hek293; further: in other assays of this panel Not Active means under 50% inhibition at 10 µM
# Voltage-gated inwardly rectifying potassium channel KCNH2, sequence (Q12809 whole entry): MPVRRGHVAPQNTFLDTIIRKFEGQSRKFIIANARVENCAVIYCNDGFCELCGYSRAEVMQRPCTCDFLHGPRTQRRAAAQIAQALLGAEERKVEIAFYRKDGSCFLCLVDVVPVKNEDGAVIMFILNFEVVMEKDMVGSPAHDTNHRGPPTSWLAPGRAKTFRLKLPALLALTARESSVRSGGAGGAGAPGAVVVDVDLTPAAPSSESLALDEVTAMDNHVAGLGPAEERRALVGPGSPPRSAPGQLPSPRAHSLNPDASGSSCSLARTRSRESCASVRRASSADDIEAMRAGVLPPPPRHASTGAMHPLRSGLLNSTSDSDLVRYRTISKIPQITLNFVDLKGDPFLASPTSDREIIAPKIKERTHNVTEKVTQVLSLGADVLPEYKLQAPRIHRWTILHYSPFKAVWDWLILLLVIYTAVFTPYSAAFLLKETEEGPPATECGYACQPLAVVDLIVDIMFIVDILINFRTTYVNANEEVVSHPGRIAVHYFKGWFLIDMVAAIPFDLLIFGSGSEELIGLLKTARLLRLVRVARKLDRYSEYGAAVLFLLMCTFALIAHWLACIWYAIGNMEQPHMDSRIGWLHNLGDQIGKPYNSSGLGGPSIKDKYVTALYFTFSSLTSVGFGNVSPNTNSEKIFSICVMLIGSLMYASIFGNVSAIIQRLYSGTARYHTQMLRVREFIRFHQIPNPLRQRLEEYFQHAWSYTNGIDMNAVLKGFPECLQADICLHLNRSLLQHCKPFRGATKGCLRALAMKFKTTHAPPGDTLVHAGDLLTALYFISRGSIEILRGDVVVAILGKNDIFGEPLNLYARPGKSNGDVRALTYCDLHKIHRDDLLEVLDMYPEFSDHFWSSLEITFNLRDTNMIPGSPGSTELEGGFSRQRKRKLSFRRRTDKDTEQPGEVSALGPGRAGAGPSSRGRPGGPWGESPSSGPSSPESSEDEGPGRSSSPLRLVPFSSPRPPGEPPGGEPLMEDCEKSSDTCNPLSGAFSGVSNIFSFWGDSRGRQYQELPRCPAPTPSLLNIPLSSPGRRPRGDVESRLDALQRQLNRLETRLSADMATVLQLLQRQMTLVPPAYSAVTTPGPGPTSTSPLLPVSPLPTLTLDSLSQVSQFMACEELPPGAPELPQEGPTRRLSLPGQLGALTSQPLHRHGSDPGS
# Cannabinoid receptor 1, sequence (P21554 whole entry): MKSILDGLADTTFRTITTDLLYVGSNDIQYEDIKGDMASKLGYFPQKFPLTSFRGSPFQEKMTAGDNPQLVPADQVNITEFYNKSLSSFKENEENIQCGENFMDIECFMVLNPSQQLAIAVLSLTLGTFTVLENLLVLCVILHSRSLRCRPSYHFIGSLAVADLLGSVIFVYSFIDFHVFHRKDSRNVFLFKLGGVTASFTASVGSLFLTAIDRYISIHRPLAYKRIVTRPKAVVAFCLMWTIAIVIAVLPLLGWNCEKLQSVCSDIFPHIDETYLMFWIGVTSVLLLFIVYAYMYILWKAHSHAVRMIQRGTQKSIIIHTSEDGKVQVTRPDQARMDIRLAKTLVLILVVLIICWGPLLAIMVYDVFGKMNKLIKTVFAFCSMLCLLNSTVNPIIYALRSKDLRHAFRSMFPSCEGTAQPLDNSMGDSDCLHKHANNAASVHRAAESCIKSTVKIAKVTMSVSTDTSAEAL
# Vascular endothelial growth factor receptor 1, sequence (P17948 whole entry): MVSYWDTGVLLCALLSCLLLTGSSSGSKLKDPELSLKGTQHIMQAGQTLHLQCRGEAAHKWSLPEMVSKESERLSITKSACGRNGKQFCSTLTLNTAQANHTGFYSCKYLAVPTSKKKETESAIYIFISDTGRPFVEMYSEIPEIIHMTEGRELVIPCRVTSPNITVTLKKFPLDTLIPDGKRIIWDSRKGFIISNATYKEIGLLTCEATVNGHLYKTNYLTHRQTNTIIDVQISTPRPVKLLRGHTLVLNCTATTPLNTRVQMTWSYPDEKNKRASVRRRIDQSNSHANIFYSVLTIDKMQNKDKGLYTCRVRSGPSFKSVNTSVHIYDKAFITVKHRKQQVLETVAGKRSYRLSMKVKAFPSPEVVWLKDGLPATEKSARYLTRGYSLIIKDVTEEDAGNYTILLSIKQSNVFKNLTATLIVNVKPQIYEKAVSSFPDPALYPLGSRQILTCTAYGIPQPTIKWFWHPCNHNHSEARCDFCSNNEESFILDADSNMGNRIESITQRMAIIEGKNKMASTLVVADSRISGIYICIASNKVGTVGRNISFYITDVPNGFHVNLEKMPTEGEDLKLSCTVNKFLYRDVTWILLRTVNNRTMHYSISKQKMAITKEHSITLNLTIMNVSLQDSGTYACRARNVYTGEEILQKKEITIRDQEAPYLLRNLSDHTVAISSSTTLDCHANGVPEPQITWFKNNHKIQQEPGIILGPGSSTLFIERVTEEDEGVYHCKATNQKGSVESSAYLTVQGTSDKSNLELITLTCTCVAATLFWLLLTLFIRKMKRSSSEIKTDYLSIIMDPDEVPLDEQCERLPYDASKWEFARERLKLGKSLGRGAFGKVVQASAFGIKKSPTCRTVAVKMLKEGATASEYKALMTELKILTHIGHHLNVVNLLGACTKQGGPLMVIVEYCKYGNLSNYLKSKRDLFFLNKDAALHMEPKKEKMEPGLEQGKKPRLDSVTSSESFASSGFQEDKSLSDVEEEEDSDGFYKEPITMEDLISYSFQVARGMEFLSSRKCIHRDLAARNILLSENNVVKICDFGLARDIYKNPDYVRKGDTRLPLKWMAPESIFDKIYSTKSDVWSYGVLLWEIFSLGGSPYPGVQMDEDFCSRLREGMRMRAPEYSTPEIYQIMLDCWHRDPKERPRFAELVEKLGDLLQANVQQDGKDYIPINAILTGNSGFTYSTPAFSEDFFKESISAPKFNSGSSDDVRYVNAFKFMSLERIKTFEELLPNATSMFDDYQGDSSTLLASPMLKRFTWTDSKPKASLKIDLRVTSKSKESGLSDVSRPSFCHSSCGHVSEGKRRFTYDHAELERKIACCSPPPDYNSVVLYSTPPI
# Cytochrome P450 2D6, sequence (P10635 whole entry): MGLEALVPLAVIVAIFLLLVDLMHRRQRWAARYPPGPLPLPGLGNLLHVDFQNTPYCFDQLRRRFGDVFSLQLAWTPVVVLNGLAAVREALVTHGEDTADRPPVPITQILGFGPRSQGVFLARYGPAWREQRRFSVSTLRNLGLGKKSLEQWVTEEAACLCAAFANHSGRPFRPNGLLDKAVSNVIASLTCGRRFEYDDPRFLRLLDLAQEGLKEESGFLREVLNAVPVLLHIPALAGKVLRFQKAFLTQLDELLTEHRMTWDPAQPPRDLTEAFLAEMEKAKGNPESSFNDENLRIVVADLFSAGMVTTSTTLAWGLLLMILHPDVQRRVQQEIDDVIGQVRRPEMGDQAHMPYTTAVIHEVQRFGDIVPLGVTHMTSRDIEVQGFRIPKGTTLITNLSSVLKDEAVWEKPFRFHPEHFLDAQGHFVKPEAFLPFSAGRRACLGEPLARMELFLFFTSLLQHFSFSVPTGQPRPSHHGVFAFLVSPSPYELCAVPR
# Mu-type opioid receptor, sequence (P35372 whole entry): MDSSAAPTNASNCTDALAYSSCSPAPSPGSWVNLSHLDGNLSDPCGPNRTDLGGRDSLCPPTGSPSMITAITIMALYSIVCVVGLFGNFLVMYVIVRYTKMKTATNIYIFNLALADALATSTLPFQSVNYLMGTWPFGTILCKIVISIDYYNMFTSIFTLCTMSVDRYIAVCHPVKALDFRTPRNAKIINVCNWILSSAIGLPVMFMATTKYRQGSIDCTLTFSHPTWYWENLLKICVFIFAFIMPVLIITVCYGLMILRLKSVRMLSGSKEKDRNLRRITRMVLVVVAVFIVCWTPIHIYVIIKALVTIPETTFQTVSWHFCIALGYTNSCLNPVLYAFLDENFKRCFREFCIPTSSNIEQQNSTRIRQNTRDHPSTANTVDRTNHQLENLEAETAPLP
# Estrogen receptor beta, sequence (Q92731 whole entry): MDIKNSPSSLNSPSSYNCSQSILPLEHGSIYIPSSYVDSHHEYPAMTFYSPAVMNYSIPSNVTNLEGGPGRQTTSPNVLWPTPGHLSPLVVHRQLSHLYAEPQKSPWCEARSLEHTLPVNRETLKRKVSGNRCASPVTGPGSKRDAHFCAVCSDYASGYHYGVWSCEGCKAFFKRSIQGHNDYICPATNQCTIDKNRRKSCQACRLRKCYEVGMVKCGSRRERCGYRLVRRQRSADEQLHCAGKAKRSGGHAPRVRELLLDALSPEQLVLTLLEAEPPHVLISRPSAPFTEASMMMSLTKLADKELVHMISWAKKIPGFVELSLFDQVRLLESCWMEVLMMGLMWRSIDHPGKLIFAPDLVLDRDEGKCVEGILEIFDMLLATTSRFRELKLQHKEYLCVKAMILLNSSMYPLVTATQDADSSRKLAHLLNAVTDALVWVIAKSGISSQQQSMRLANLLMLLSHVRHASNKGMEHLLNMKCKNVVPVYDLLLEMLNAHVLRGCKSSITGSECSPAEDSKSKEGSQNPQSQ
Compound,IC50 [1],IC50 (Cannabinoid receptor 1),IC50 [2],IC50 (Mu-type opioid receptor),IC50 [3],Ki [3],IC50 (Progesterone receptor),IC50 (Cytochrome P450 2A6),Ki (Cytochrome P450 2A6),IC50 (Cytochrome P450 2D6),Ki (Cytochrome P450 2D6),IC50 (Estrogen receptor beta),IC50 [4],Ki [4],IC50 ([3]; read-out: IC50)
CC1=C(CC(=O)O)c2cc(F)ccc2/C1=C\c1ccc([S+](C)[O-])cc1 (configuration not stated),Not Active,Not Active,Not Active,Not Active,Not Active,Not Active,Not Active,Not Active,Not Active,Not Active,Not Active,Not Active,Not Active,Not Active,
N[C@H](CSC(=S)NCc1ccccc1)C(=O)O,Not Active,Not Active,Not Active,Not Active,Not Active,Not Active,Not Active,Not Active,Not Active,Not Active,Not Active,Not Active,Not Active,Not Active,
CC(=O)N[C@@H]1[C@H](Oc2c3cc4cc2Oc2ccc(cc2Cl)[C@@H](O[C@@H]2O[C@@H](CO)[C@@H](O)[C@H](O)[C@@H]2NC(C)=O)[C@@H]2NC(=O)[C@H](NC(=O)[C@@H]4NC(=O)[C@H]4NC(=O)[C@@H](Cc5ccc(c(Cl)c5)O3)NC(=O)[C@H](N)c3ccc(O)c(c3)Oc3cc(O)cc4c3)c3ccc(O)c(c3)-c3c(O[C@H]4O[C@H](CO)[C@@H](O)[C@@H](O)[C@@H]4O)cc(O)cc3[C@@H](C(=O)O)NC2=O)O[C@@H](CO)[C@@H](O)[C@@H]1O,Not Active,Not Active,Not Active,Not Active,Not Active,Not Active,Not Active,Not Active,Not Active,Not Active,Not Active,Not Active,Not Active,Not Active,
Clc1ccc2c(c1)C(N1CCNCC1)=Nc1ccccc1O2 [AMOXAPINE],Not Active,Not Active,Not Active,Not Active,,,Not Active,Not Active,Not Active,,,Not Active,Not Active,Not Active,
CN1CCC(=C2c3ccccc3C=Cc3ccccc32)CC1 [CYPROHEPTADINE],Not Active,Not Active,Not Active,Not Active,,,Not Active,Not Active,Not Active,Not Active,Not Active,Not Active,,,
CC(C)NCC(O)COc1cccc2ccccc12 (configuration not stated) [PROPRANOLOL],Not Active,Not Active,Not Active,Not Active,,,Not Active,Not Active,Not Active,,,Not Active,Not Active,Not Active,
COCCCOc1ccnc(C[S+]([O-])c2nc3ccccc3[nH]2)c1C (configuration not stated) [RABEPRAZOLE],Not Active,Not Active,Not Active,Not Active,,,Not Active,Not Active,Not Active,Not Active,Not Active,Not Active,Not Active,Not Active,2280 nM
CNC(=C[N+](=O)[O-])NCCSCc1ccc(CN(C)C)o1 [RANITIDINE],Not Active,Not Active,Not Active,Not Active,Not Active,Not Active,Not Active,Not Active,Not Active,Not Active,Not Active,Not Active,Not Active,Not Active,
CO[C@H]1/C=C/O[C@@]2(C)Oc3c(C)c(O)c4c(c3C2=O)C2=NC3(CCN(CC(C)C)CC3)NC2=C(NC(=O)/C(C)=C\C=C\[C@H](C)[C@H](O)[C@@H](C)[C@@H](O)[C@@H](C)[C@H](OC(C)=O)[C@@H]1C)C4=O [RIFABUTIN],Not Active,Not Active,Not Active,Not Active,Not Active,Not Active,Not Active,Not Active,Not Active,Not Active,Not Active,Not Active,Not Active,Not Active,
CC(C)CC(N(C)C)C1(c2ccc(Cl)cc2)CCC1 (configuration not stated) [SIBUTRAMINE],Not Active,Not Active,Not Active,Not Active,Not Active,Not Active,Not Active,Not Active,Not Active,Not Active,Not Active,Not Active,Not Active,Not Active,
[H]/N=C(/N)N[C@H]1[C@H](O)[C@@H](O)[C@H](O[C@@H]2O[C@@H](C)[C@](O)(C=O)[C@H]2O[C@@H]2O[C@@H](CO)[C@H](O)[C@@H](O)[C@@H]2NC)[C@@H](N/C(N)=N\[H])[C@@H]1O [STREPTOMYCIN],Not Active,Not Active,Not Active,Not Active,Not Active,Not Active,Not Active,Not Active,Not Active,Not Active,Not Active,Not Active,Not Active,Not Active,
COc1cc(NS(=O)(=O)c2ccc(N)cc2)nc(OC)n1 [SULFADIMETHOXINE],Not Active,Not Active,Not Active,Not Active,Not Active,Not Active,Not Active,Not Active,Not Active,Not Active,Not Active,Not Active,Not Active,Not Active,
CN1C(C(=O)Nc2ccccn2)=C(O)c2sccc2S1(=O)=O [TENOXICAM],Not Active,Not Active,Not Active,Not Active,Not Active,Not Active,Not Active,Not Active,Not Active,Not Active,Not Active,Not Active,Not Active,Not Active,
CC(C)(C)c1ccc(C(O)CCCN2CCC(C(O)(c3ccccc3)c3ccccc3)CC2)cc1 (configuration not stated) [TERFENADINE],Not Active,Not Active,Not Active,Not Active,Not Active,Not Active,Not Active,Not Active,Not Active,Not Active,Not Active,Not Active,,,
O=C1CCC(N2C(=O)c3ccccc3C2=O)C(=O)N1 (configuration not stated) [THALIDOMIDE],Not Active,Not Active,Not Active,Not Active,Not Active,Not Active,Not Active,Not Active,Not Active,Not Active,Not Active,Not Active,Not Active,Not Active,
C[C@@H](N)[C@H]1CC[C@H](C(=O)Nc2ccncc2)CC1 [Y-27632],Not Active,Not Active,Not Active,Not Active,Not Active,Not Active,Not Active,Not Active,Not Active,Not Active,Not Active,Not Active,,,
